# Assay results: patent US20160002247A1, “8-SUBSTITUTED IMIDAZOPYRIMIDINONE DERIVATIVE HAVING AUTOTAXIN INHIBITORY ACTIVITY” (THE UNIVERSITY OF TOKYO, priority 2013, published 2016)
# Target: T1, Human autotaxin enzyme (Homo sapiens, UniProt Q13822)
# T1 construct: purchased R&D System
# Assay: Evaluation of autotaxin inhibitor, Method B (Test Example 2): TG-mTMP fluorescence
# Type: biochemical
# Details: Assay Method B (Test Example 2), human autotaxin; read-out: Inhibitory Activity (autotaxin enzyme inhibitory activity, IC50 class)
# Experimental: (Method B) Evaluation of Autotaxin Inhibitor
# Solution A containing 25 mM Tris-HCl buffer (pH7.5), 100 mM NaCl, 5 mM MgCl2 and 0.1% BSA was prepared. Human autotaxin enzyme (purchased from R&D System) was diluted with Solution A, and 5 μL of which was added to a solution of test compound in DMSO. Furthermore, 5 μl of 0.5 μM TG-mTMP in Solution A was added and allowed to react at room temperature for 2 hours. 5 μl of 150 mM EDTA in Solution A was added to quench the reaction, and the fluorescent dye TokyoGreen, which was produced by the reaction, was detected. The fluorescence was detected using ViewLux (PerkinElmer, Inc.) with an excitation wavelength of 480 nm and a fluorescence wavelength of 540 nm.
row,Compound,IC50 [nM]
1,CCCCCn1c(-c2ccc(O)cc2)cc(=O)n2cc(-c3ccc(Cl)cc3)nc12 [Compound 411],< 10
2,CCCCCn1c(-c2ccc(N)cc2)cc(=O)n2cc(-c3ccc(Cl)cc3)nc12 [Compound 422],10 to 100
3,CCCCCn1c(C)cc(=O)n2cc(-c3ccc(C#N)cc3)nc12 [Compound 157],< 10
4,CCCCCn1c(C)cc(=O)n2cc(-c3cc4ccccc4o3)nc12 [Compound 143],100 to 1000
5,CCCCCn1c(-c2ccc(C#N)cc2)cc(=O)n2cc(-c3ccc(Cl)cc3)nc12 [Compound 400],< 10
6,CCCCCn1c(-c2ccncc2)cc(=O)n2cc(-c3ccc(Cl)cc3)nc12 [Compound 410],< 10
7,CCCCCn1c(C)cc(=O)n2cc(-c3ccc4occc4c3)nc12 [Compound 146],100 to 1000
8,CCCCCn1c(NCCOC)cc(=O)n2cc(-c3ccc(Cl)cc3)nc12 [Compound 250],10 to 100
9,CCCCCn1c(NCc2ccc(N(C)C)cc2)cc(=O)n2cc(-c3ccc(Cl)cc3)nc12 [Compound 237],10 to 100
10,Cc1cc(=O)n2cc(-c3ccc(Cl)cc3)nc2n1Cc1ccncc1 [Compound 109],100 to 1000
11,CCCCCCCCOc1cc(=O)n2cc(-c3ccc(Cl)cc3)nc2n1CCCCC [Compound 263],100 to 1000
12,CCCCCn1c(C)cc(=O)n2cc(-c3ccc(Oc4ccccc4)cc3)nc12 [Compound 141],10 to 100
13,N#Cc1ccc(-c2cn3c(=O)cc(NCc4ccc(C(=O)O)cc4)n(CCCC(F)(F)F)c3n2)cc1 [Compound 289],< 10
14,Cc1cc(=O)n2cc(-c3ccc(Cl)cc3)nc2n1Cc1ccc(OCCCN(C)C)cc1 [Compound 89],< 10
15,CCCCCn1c(/C=C/C(C)(C)C)cc(=O)n2cc(-c3ccc(Cl)cc3)nc12 [Compound 415],10 to 100
16,CCCCCn1c(-c2cnc(N)cn2)cc(=O)n2cc(-c3ccc(Cl)cc3)nc12 [Compound 424],< 10
17,CCCCCn1c(C)cc(=O)n2cc(C3CCCCC3)nc12 [Compound 139],100 to 1000
18,CCCCCn1c(C)c(F)c(=O)n2cc(-c3ccc(Cl)cc3)nc12 [Compound 206],10 to 100
19,CCCCCn1c(-c2cc3ccccc3o2)cc(=O)n2cc(-c3ccc(Cl)cc3)nc12 [Compound 392],100 to 1000
20,CCCCCn1c(N2CCN(c3cc(F)cc(F)c3)CC2)cc(=O)n2cc(-c3ccc(Cl)cc3)nc12 [Compound 245],10 to 100
21,CCCCCn1c(Oc2ccc(C(=O)CC)cc2)cc(=O)n2cc(-c3ccc(Cl)cc3)nc12 [Compound 266],100 to 1000
22,CCCc1cn2c(=O)ccn(CCc3ccc(Cl)cc3)c2n1 [Compound 128],> 1000
23,CCCCCn1c(C)cc(=O)n2cc(-c3ccc(N(CC)CC)cc3)nc12 [Compound 159],> 1000

# Continued, values first:
row,IC50 [nM],Compound
1,< 10,CCCCCn1c(NCC(=O)N2CCN(C)CC2)cc(=O)n2cc(-c3ccc(Cl)cc3)nc12 [Compound 241]
2,< 10,CCCCCn1c(OC2CCN(C)CC2)cc(=O)n2cc(-c3ccc(Cl)cc3)nc12 [Compound 193]
3,10 to 100,CCCCCn1c(NCCNC(C)=O)cc(=O)n2cc(-c3ccc(Cl)cc3)nc12 [Compound 236]
4,10 to 100,CCCCCn1c(NCCC)cc(=O)n2cc(-c3ccc(Cl)cc3)nc12 [Compound 188]

# Same assay, conditions: Assay Method: Method B (Test Example 2); read-out: Inhibitory Activity (Enzyme Inhibitory Activity, IC50)
row,IC50 [nM],Compound
1,10 to 100,Cc1cc(=O)n2cc(-c3ccc(Cl)cc3)nc2n1CCCC(F)(F)F [Compound 59]
2,> 1000,Cc1cc(=O)n2cc(-c3ccc(Cl)cc3)nc2n1CC(=O)NC(C)C [Compound 68]
3,10 to 100,CCC(C)Cn1c(C)cc(=O)n2cc(-c3ccc(Cl)cc3)nc12 (stereo not drawn) [Compound 71]
4,10 to 100,CCOC(=O)C(C)n1c(C)cc(=O)n2cc(-c3ccc(Cl)cc3)nc12 (stereo not drawn) [Compound 80]
5,10 to 100,CCC(=O)C(C)n1c(C)cc(=O)n2cc(-c3ccc(Cl)cc3)nc12 (stereo not drawn) [Compound 51]
6,10 to 100,Cc1cc(=O)n2cc(-c3ccc(Cl)cc3)nc2n1CC(=O)OC(C)C [Compound 72]

# Same assay, conditions: Inhibitory Activity (Enzyme Inhibitory Activity, IC50), Assay Method: Method B (Test Example 2)
row,IC50 [nM],Compound
1,< 10,"CCCCCn1c(C)cc(=O)n2cc(-c3ccc(Cl)cc3)nc12 [Compound 3, 2-(4-chlorophenyl)-7-methyl-8-pentyl-imidazo[1,2-a]pyrimidin-5(8H)-one]"

# Target: T1, Human autotaxin enzyme
# Assay: Evaluation of autotaxin inhibitor, Method C (Test Example 3): 18:0 Lyso PC, choline assay, Resorufin fluorescence
# Type: biochemical
# Details: Assay Method C (Test Example 3), human autotaxin, 18:0 Lyso PC substrate; read-out: Inhibitory Activity (autotaxin enzyme inhibitory activity, IC50 class)
# Outline: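 Choline-coupled fluorescence readout (20 min, resorufin at 531/598 nm) followed a 2 h room-temperature reaction of human autotaxin with 18:0 Lyso PC substrate (added as 200 μM solution) in pH 7.5 Tris buffer containing MgCl2 and Triton X-100. Percent inhibition scaled to no-compound (0%) and no-enzyme (100%) wells and plotted versus concentration.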
row,Compound,IC50 [nM]
1,CCCCCn1c(-c2ccc(C(=O)Nc3ccc(OC)cc3)cc2)cc(=O)n2cc(-c3ccc(Cl)cc3)nc12 [Compound 471],100 to 1000
2,CCCCCn1c(-c2ccc(C(=O)NCc3ccc(S(N)(=O)=O)cc3)cc2)cc(=O)n2cc(-c3ccc(Cl)cc3)nc12 [Compound 521],10 to 100
3,CCCCCn1c(-c2ccc(C(=O)NCCNC3CCS(=O)(=O)C3)cc2)cc(=O)n2cc(-c3ccc(Cl)cc3)nc12 (stereo not drawn) [Compound 524],10 to 100
4,O=C(O)[C@H](CCc1ccccc1)NC(=O)[C@@H]1CCCN1c1cc(=O)n2cc(-c3ccc(Cl)cc3)nc2n1Cc1ccccc1 [Compound 745],< 10
5,CCCCCn1c(-c2cccc(C(=O)NCCN(C)C)c2)cc(=O)n2cc(-c3ccc(Cl)cc3)nc12 [Compound 439],10 to 100
6,"CCCCCn1c(-c2ccc(C(=O)NCCNC(=O)OCc3ccccc3)cc2)cc(=O)n2cc(-c3ccc(Cl)cc3)nc12 [Compound 363, benzyl 2-(4-(2-(4-chlorophenyl)-5-oxo-8-pentyl-5,8-dihydroimidazo[1,2-a]pyrimidin-7-yl)benzamide)ethylcarbamate]",10 to 100
7,CCCCCn1c(N2CCCC(O)(c3ccc(F)cc3)C2)cc(=O)n2cc(-c3ccc(Cl)cc3)nc12 (stereo not drawn) [Compound 317],> 1000
8,CCCCCn1c(-c2ccc(C(=O)NCCF)cc2)cc(=O)n2cc(-c3ccc(Cl)cc3)nc12 [Compound 475],10 to 100
9,CCCCCn1c(-c2ccc(C(=O)NCCCOC)cc2)cc(=O)n2cc(-c3ccc(Cl)cc3)nc12 [Compound 479],10 to 100
10,CCCCCn1c(-c2ccc(NC(C)=O)cc2)cc(=O)n2cc(-c3ccc(Cl)cc3)nc12 [Compound 434],100 to 1000
11,CCCCCn1c(N2CCC(Cc3ccccc3)C2)cc(=O)n2cc(-c3ccc(Cl)cc3)nc12 (stereo not drawn) [Compound 325],100 to 1000

# Other lines, results leading:
row,IC50 [nM],Compound
1,10 to 100,CCCCCn1c(N2CCC[C@H]2C(=O)N2CCNC(=O)CC2)cc(=O)n2cc(-c3ccc(Cl)cc3)nc12 [Compound 698]
2,100 to 1000,C[C@H](NC(=O)[C@@H]1CCCN1c1cc(=O)n2cc(-c3ccc(Cl)cc3)nc2n1C)C(=O)O [Compound 771]
3,100 to 1000,CCCCCn1c(-c2ccc(C(=O)N3CCCC3)cc2)cc(=O)n2cc(-c3ccc(Cl)cc3)nc12 [Compound 406]
4,10 to 100,CCCCCn1c(N2CCC[C@H]2C(=O)NCCN2CCCC2=O)cc(=O)n2cc(-c3ccc(Cl)cc3)nc12 [Compound 341]
5,10 to 100,CCCCCn1c(N2C[C@@H](F)C[C@H]2C(=O)NCCC(=O)OCC)cc(=O)n2cc(-c3ccc(Cl)cc3)nc12 [Compound 592]
6,100 to 1000,CCCCCn1c(N2CCN(C(=O)OC(C)(C)C)C[C@@H]2C(=O)NCC(=O)O)cc(=O)n2cc(-c3ccc(Cl)cc3)nc12 [Compound 631]
7,100 to 1000,CCCCCn1c(NCCC(=O)O)cc(=O)n2cc(-c3ccc(Cl)cc3)nc12 [Compound 601]
8,10 to 100,CCCCCn1c(N2CCNC(C(=O)O)C2)cc(=O)n2cc(-c3ccc(Cl)cc3)nc12 (stereo not drawn) [Compound 658]
9,< 10,CCCCCn1c(N2CCC[C@H]2C(=O)NC(C)C(=O)OC)cc(=O)n2cc(-c3ccc(Cl)cc3)nc12 (stereo partly drawn) [Compound 685]
10,100 to 1000,CCCCCn1c(N2CCC(NC(C)=O)CC2)cc(=O)n2cc(-c3ccc(Cl)cc3)nc12 [Compound 294]
11,100 to 1000,CCCCCn1c(N2CCC[C@H]2C(=O)N2CCC[C@H](C(=O)OCC)C2)cc(=O)n2cc(-c3ccc(Cl)cc3)nc12 [Compound 691]
12,10 to 100,CCCCCn1c(N[C@@H]2CCC[C@H]2C(=O)O)cc(=O)n2cc(-c3ccc(Cl)cc3)nc12 [Compound 613]
13,> 1000,CCCCCn1c(N2CCN(C(=O)OC(C)(C)C)C[C@@H]2C(=O)O)cc(=O)n2cc(-c3ccc(Cl)cc3)nc12 [Compound 640]
14,> 1000,CCCCCn1c(N2CCC[C@H]2C(=O)NCC2CCN(C)C2)cc(=O)n2cc(-c3ccc(Cl)cc3)nc12 (stereo partly drawn) [Compound 650]
15,10 to 100,CCCCCn1c(N2CCC[C@H]2C(=O)N2CCC[C@H]2C(=O)O)cc(=O)n2cc(-c3ccc(Cl)cc3)nc12 [Compound 337]
16,< 10,CCCCCn1c(N2CCC[C@H](C(=O)NCCC(=O)O)C2)cc(=O)n2cc(-c3ccc(Cl)cc3)nc12 [Compound 616]
17,10 to 100,CCCCCn1c(-c2ccc(C(=O)NCCN3CCNC3=O)cc2)cc(=O)n2cc(-c3ccc(Cl)cc3)nc12 [Compound 516]

# Same assay, conditions: Assay Method C, human autotaxin, 18:0 Lyso PC substrate; read-out: Inhibitory Activity
row,Compound,IC50 [nM]
1,Cn1cc(Cc2cccc(C(=O)O)c2)c(=O)n2cc(-c3ccc(Cl)cc3)nc12 [Compound 819],100 to 1000
2,O=C(Cc1cn(CCCC(F)(F)F)c2nc(-c3ccc(Cl)cc3)cn2c1=O)NCCO [Compound 843],> 1000

# Now from value to compound:
row,IC50 [nM],Compound
1,> 1000,CCCCCn1c(N2CCCC(C)(C)C2)cc(=O)n2cc(-c3ccc(Cl)cc3)nc12 [Compound 804]
2,> 1000,CCCCCn1c(N2CCC[C@H]2C(=O)Nc2cc(O)[nH]n2)cc(=O)n2cc(-c3ccc(Cl)cc3)nc12 [Compound 788]
